In US11723899B2, “ALK2 inhibitors for the treatment of anemia” (Incyte Corporation, priority 2020, dated 2023):

Legend:
[1] = 28-day repeat dose toxicity study in dogs; type: in vivo
From the text: (§1) Iron parameters and liver functional tests will be monitored clinically.
(§2) Potential increases in heart rate, skin/hair, and the gastrointestinal track will also be monitored clinically.

[2] = 28-day repeat dose toxicity study in rats; type: in vivo
From the text: as §1, §2

[3] = tested on: mouse adenine-induced chronic kidney disease model; assay: Mouse adenine-induced chronic kidney disease (anemia) model; type: in vivo, male C57BL/6 mice
From the text: The anemia associated with chronic kidney disease has been associated with the hepatic hormone hepcidin (Akchurin et al., Am. J. Physiol. Renal Physiol., 2016). Therefore, reduction of hepcidin levels through inhibition of ALK2 would be a useful therapeutic strategy to combat this aspect of the disease. To test this hypothesis, a murine model of chronic kidney disease that also leads to anemia was used. Orally administered adenine metabolizes to 2,8-dihydroxyadenine, which crystalizes in the tubules of the kidney. Build-up of this metabolite causes kidney injury (nephropathy), inflammation, and subsequently anemia. Mice (typically male C57B/6 mice age 6-10 weeks) are administered adenine (maximum dose of 50 mg/kg QD) by oral gavage for 28 days. During this time, mice are monitored weekly for changes in kidney function and hematology. Anemia onset is tracked by blood draws to measure complete blood count (CBC), which includes red blood cell count, hemoglobin levels, and hematocrit. Drops in these blood parameters would be indicative of anemia. […] Changes in kidney function are detectable within 10 days of adenine administration (Jia et al., BMC Nephrology, 2013; Rahman et al., PLoS One, 2018), and are monitored by analysis of plasma levels of creatinine and blood urea nitrogen (BUN) (Rahman et al., PLoS One, 2018). Increases in plasma creatinine, plasma BUN, and urine protein (>2 fold) are indicative of kidney injury. Body weights are also monitored weekly as a sign of overall fitness.
To investigate the ability of an ALK2 inhibitor to alleviate the anemia brought on by kidney injury, male C57BL/6 mice (Charles River Laboratories) were administered oral adenine (45 mg/kg QD) for 28 days. A cohort of mice were also administered vehicle solution to maintain a normal blood level baseline for comparison (n=10). Mice were monitored weekly for changes in blood parameters by CBC, and for changes in weight. Starting at 14 days post first administration of adenine, mice receiving adenine were dosed with either 30 mg/kg QD (n=8) or 100 mg/kg QD (n=9) Compound A, or vehicle control (n=10). Mice were dosed for 21 days, which includes […] after the cessation of adenine administration. Final analyses were performed one week after the last dose of Compound A, 42 days after adenine administration began. Shown in FIG. 1 are results from this experiment.
A study was performed to investigate the effects of starting the dosing of Compound A later in kidney disease progression at the point when hepcidin levels increase, at […]. Male C57BL/6 mice were administered oral adenine (45 mg/kg QD) for 28 days. A cohort of mice were also administered vehicle solution to maintain a normal blood level baseline for comparison (n=8). Mice were monitored weekly for changes in blood parameters by CBC, and for changes in weight. The mice receiving adenine were dosed with either 30 mg/kg QD (n=8) or 100 mg/kg QD (n=8) Compound A, or vehicle control (n=8). Compound A dosing began at either 14 or 21 days after adenine administration began and continued for 21 days, followed by one more week until blood analysis. The dosing that began on day 14 was termed “prophylactic” as it began before the increase in hepcidin occurs. Dosing that began on day 21 was termed “concomitant” as the dosing coincided with hepcidin level increase. […] Overall, Compound A was able to improve the anemia arising in this model. […]

[4] = Phase 1a single-dose, dose-escalation safety and tolerability study in healthy adult participants; type: in vivo, human; settings: single oral dose 10, 25, 50, 100 and 175 mg
From the text: A Phase 1a, double-blind, randomized, placebo-controlled, single-dose, dose-escalation and food-effect study is being conducted with 2-amino-N-(4-hydroxybicyclo-[2.2.2]octan-1-yl)-5-(4-((1R,5S)-3-(tetrahydro-2H-pyran-4-yl)-3-azabicyclo-[3.1.0]hexan-1-yl)phenyl)nicotinamide (“Compound A”) in order to assess the safety, tolerability, and pharmacokinetics (PK) of Compound A when administered orally as a single dose to healthy adult participants.
Compound A has been administered as a single dose at the dose levels of 10 mg, 25 mg, 50 mg, 100 mg, and 175 mg once to 9 healthy participants at each dose level.

SMILES: Nc1ncc(-c2ccc([C@@]34C[C@@H]3CN(C3CCOCC3)C4)cc2)cc1C(=O)NC12CCC(O)(CC1)CC2 [Compound A, 2-amino-N-(4-hydroxybicyclo-[2.2.2]octan-1-yl)-5-(4-((1R,5S)-3-(tetrahydro-2H-pyran-4-yl)-3-azabicyclo-[3.1.0]hexan-1-yl)phenyl)nicotinamide]
- findings at the no observed adverse effect level (NOAEL) ([1]; 28-day repeat dose, at NOAEL): slight increases in iron staining in the liver with no associated increase in liver function tests (LFTs) or microscopic findings in the liver
- liver findings at higher doses ([1]; 28-day repeat dose, doses above NOAEL): increases in serum alanine aminotransferase (ALT) and aspartate aminotransferase (AST) and microscopic findings in the liver
- additional adverse findings considered related to inhibition of ALK3 ([1]; 28-day repeat dose, higher doses): mucosal hypertrophy and hyperplasia in the gastrointestinal tract with associated changes in the mesenteric lymph nodes, anagen phase arrest of hair follicles, and further alterations in iron metabolism
- heart rate ([1]; higher doses): increased heart rates
- findings at the no observed adverse effect level (NOAEL) ([2]; at NOAEL): slight increases in iron staining in the liver with no associated increase in liver function tests (LFTs) or microscopic findings in the liver
- liver findings at higher doses ([2]; doses above NOAEL): increases in serum alanine aminotransferase (ALT) and aspartate aminotransferase (AST) and microscopic findings in the liver
- additional adverse findings considered related to inhibition of ALK3 ([2]; higher doses, species not given): mucosal hypertrophy and hyperplasia in the gastrointestinal tract with associated changes in the mesenteric lymph nodes, anagen phase arrest of hair follicles, and further alterations in iron metabolism
- hemoglobin levels relative to normal range ([3]; 100 mg/kg QD, prophylactic dosing (from day 14), FIG. 2): returned hemoglobin levels that are within the normal range
- body weights ([3]; 30 or 100 mg/kg QD for 21 days from day 14, vs adenine without Compound A, FIG. 1 right): increased weights
- hemoglobin levels, prophylactic dosing ([3]; 30 or 100 mg/kg QD for 21 days starting day 14 of adenine, FIG. 2 left): dose dependent increase in hemoglobin levels
- hemoglobin levels, concomitant dosing ([3]; 30 or 100 mg/kg QD for 21 days starting day 21 of adenine, FIG. 2 right): significant increases in hemoglobin levels that were dose dependent
- hemoglobin (HGB) levels ([3]; day 42, 30 or 100 mg/kg QD for 21 days starting 14 days after first adenine (45 mg/kg QD, 28 days), vs adenine + vehicle, FIG. 1 left): dose-dependently improved hemoglobin (HGB) levels
- severe adverse events (SAEs) ([4]; 9 healthy participants per dose level): No severe adverse events (SAEs) have been observed
- severity of adverse events (AEs) ([4]; all dose levels): mild and self-limiting
